This is an account of results in patent publication US8252559B2, “Methods and systems for selective fluorination of organic molecules” (The California Institute of Technology, priority 2006, dated 2012).

This data set in a line: in vitro. The settings on record: PAMPA; for Papp at 0.5 mg/mL: pig, pH 7.4. How it is done:
Effective permeability values (Pe) are calculated by monitoring accumulation of the organic molecule in a cross-membrane compartment. […] M+/M− refers to the fraction of compound that crossed the BBB-mimic membrane as compared to system with no membrane after 16 hour incubation at room temperature. Values are means of three replicates.
Membrane permeability assay. The membrane permeability assays were carried out adapting a described procedure and using 96-well MultiScreen-IP plates from Millipore. Filter plates were rinsed with 70% EtOH and double-distilled water prior to use. BBB-mimic membranes were prepared by coating filter wells with 5 μL porcine brain lipids (PBL, Avanti Polar Lipids) in dodecane (20 mg/mL). Control wells (PBL-free) were primed in the same way but not coated with PBL. Working solutions contained 0.5 mg/mL fluorinated compound in PBS pH 7.4 (5% EtOH). Assembled plates contained 150 μL working solution in the PBL-coated (or PBL-free) well, 300 μL PBS (5% EtOH) in the acceptor well, and were incubated at room temperature and 100% humidity. The change in organic compound concentration in the donor and acceptor wells was monitored over time by HPLC. Membrane permeability values (Pe) were calculated. All measurements were performed in triplicates. The assay was validated by comparing the experimental Pe value for caffeine with that reported in the art.
Ibuprofen has recently shown promising activity against amyloidogenic diseases. Anti-amyloidogenic drugs with high brain permeability are intensively sought after. Compounds 15, 16 and 18 were tested in a membrane permeability assay that mimics the composition of the blood-brain barrier (BBB).

SMILES strings stand for the structures.

`Cn1c(=O)c2c(ncn2C)n(C)c1=O` [Caffeine, reference compound] returned an apparent permeability (Papp) at 0.5 mg/mL of 1.24 ×10⁻⁶ cm/s. Consider `COC(=O)C(C)c1ccc(CC(C)C)cc1` (centres unmarked) [Compound 12, 2-(4-Isobutyl-phenyl)-propionic acid methyl ester, reference compound], for which the “Membrane permeability properties / BBB-crossing potential (in words)” value is listed as “modest BBB-crossing potential”.

Turning to `COC(=O)C(C)c1ccc(C(F)C(C)C)cc1` (centres unmarked) [Compound 15, 2-[4-(1-Fluoro-2-methyl-propyl)-phenyl]-propionic acid methyl ester], the “Membrane permeability properties / BBB-crossing potential (in words)” value was “very good” and the Papp at 0.5 mg/mL is greater than 10 ×10⁻⁶ cm/s. For `COC(=O)C(C)c1ccc(CC(C)(C)F)cc1` (centres unmarked) [Compound 16, 2-[4-(2-Fluoro-2-methyl-propyl)-phenyl]-propionic acid methyl ester], in that order: “very good” and greater than 10 ×10⁻⁶ cm/s. For `COC(=O)C(C)c1ccc(C(F)C(C)(C)F)cc1` (centres unmarked) [Compound 18, 2-[4-(1,2-Difluoro-2-methyl-propyl)-phenyl]-propionic acid methyl ester], in that order: “excellent” and greater than 10 ×10⁻⁶ cm/s.
